The target in the assay is NaV1.5 (Homo sapiens, UniProt Q14524). Put plainly: Cut-open oocyte recording of NaV1.5. It counts as cell-based. As to conditions: 10 µM CP1. The text has this: Since CP1 has a similar effect to PIP2 in mediating VSD-pore coupling in KCNQ channels, we tested if CP1 has effects on other ion channels that are also sensitive to PIP2 or are voltage activated and share general structural features of the VSD and the pore with KCNQ. […] On the other hand, NaV1.5 and KV4.2 are voltage-gated ion channels.
Fig. 6 Effects of CP1 on other ion channels expressed in Xenopus oocytes. a Currents of Kir1.1, CaV1.2, NaV1.5, hERG, and KV4.2 before and after application of 10 µM CP1, respectively. The voltages for holding, test, and returning pulses were Kir1.1, 0 mV, −100 to +60 mV, 0; CaV1.2, −100 mV, −100 to +60, −100 mV; NaV1.5, −100, −120 to +40 mV, −120 mV; hERG, −80 mV, −90 to +60 mV, −60 mV; KV4.2, −80 mV, −100 mV to +80 mV, −40 mV; HCN4, −30 mV, −30 to −140 mV, −120 mV. b Current–voltage relations of Kir1.1 channel in the absence or presence of 10 µM CP1 (n = 7). c–g G–V relations of indicated channels with and without 10 µM CP1. The ΔV1/2 of G–V relations (mV) are CaV1.2, 3.38 ± 0.71 mV (c); NaV1.5, −2.26 ± 0.95 mV (d); hERG, 6.85 ± 1.81 mV (e); KV 4.2, −2.26 ± 2.88 mV (f); HCN4, 17.13 ± 1.59 mV (g).
Complementary DNA (cDNA) encoding human KCNQ1 (UniProtKB/Swiss‐Prot under accession no. P51787), KCNQ2 (O43526), KCNQ3 (O43525), KCNE1 (P15382), Kir1.1 (P48048), hERG (Q12809), KV4.2 (Q63881), NaV1.5 (Q14524), NaV β1 (Q07699), CaV1.2 (Q13936), CaV β1a (Q02641), CaV α2/δ1 (P54289), and HCN4 (Q9Y3Q4) were subcloned into oocyte expression vectors, respectively. Site-directed mutations of the KCNQ1 channel were all produced by overlap extension polymerase chain reaction (PCR) with high-fidelity Pfu polymerase (Stratagene, CA). The presence of the desired mutation was verified by sequencing the PCR-amplified regions. All the primer sequences used in this study are available in Supplementary Table 1. The complementary RNA (cRNA) of all these channels and mutations was transcribed in vitro with the T3, T7, or SP6 polymerase mMessage mMachine kit (Invitrogen, Thermo Fisher Scientific, MO).
The use of Xenopus laevis to obtain oocytes was approved by the Washington University Animal Studies Committee (protocol #20190030). Oocytes were manually dispersed and digested with collagenase (0.5 mg/ml, Sigma-Aldrich, Saint Louis, MO) to remove the follicle cell layer. Stage V or VI oocytes were selected and injected with cRNAs (9.2 ng) of channel or mutations. Especially, to characterize IKs, a mix of cRNAs at a molar ratio 4:1 (KCNQ1:KCNE1) was injected. For KCNQ2/KCNQ3, the molar ratio was 1:1 (KCNQ2:KCNQ3). For sodium channels, a 3:1 molar ratio (β1:NaV1.5) and for calcium channels a weight ratio 1:1:1 (β1:α2/δ1:CaV1.2) was injected, respectively. Injected oocytes were incubated in ND96 solution containing (in mM) 96 NaCl, 2 KCl, 1.8 CaCl2, 1 MgCl2, and 5 HEPES, pH 7.6, supplemented with 2.5 mM Na pyruvate and 1% penicillin–streptomycin, at 18 °C for 3–7 days before recording.
NaV1.5 currents were recorded with a cut-open amplifier (CA-1B, Dagan Corporation) coupled with an A/D converter (Digidata 1440, Molecular Devices). The data were acquired using Clampex software (v10, Molecular Devices). The internal solution was composed of (mM) 105 NMG‐Mes, 10 Na‐Mes, 20 HEPES, and 2 EGTA, pH 7.4. The external solution was composed of (mM) 25 NMG‐Mes, 90 Na‐Mes, 20 HEPES, and 2 Ca‐Mes2, pH 7.4. The ionic currents were recorded using the standard I–V protocol. From a holding potential of −120 mV, cells were stepped to a 100-ms prepulse of −120 mV and then stepped to test potentials ranging from −120 to 60 mV with 20-mV increment, […] a 100-ms postpulse of −120 mV.

Chain of NaV1.5 (Q14524 whole entry): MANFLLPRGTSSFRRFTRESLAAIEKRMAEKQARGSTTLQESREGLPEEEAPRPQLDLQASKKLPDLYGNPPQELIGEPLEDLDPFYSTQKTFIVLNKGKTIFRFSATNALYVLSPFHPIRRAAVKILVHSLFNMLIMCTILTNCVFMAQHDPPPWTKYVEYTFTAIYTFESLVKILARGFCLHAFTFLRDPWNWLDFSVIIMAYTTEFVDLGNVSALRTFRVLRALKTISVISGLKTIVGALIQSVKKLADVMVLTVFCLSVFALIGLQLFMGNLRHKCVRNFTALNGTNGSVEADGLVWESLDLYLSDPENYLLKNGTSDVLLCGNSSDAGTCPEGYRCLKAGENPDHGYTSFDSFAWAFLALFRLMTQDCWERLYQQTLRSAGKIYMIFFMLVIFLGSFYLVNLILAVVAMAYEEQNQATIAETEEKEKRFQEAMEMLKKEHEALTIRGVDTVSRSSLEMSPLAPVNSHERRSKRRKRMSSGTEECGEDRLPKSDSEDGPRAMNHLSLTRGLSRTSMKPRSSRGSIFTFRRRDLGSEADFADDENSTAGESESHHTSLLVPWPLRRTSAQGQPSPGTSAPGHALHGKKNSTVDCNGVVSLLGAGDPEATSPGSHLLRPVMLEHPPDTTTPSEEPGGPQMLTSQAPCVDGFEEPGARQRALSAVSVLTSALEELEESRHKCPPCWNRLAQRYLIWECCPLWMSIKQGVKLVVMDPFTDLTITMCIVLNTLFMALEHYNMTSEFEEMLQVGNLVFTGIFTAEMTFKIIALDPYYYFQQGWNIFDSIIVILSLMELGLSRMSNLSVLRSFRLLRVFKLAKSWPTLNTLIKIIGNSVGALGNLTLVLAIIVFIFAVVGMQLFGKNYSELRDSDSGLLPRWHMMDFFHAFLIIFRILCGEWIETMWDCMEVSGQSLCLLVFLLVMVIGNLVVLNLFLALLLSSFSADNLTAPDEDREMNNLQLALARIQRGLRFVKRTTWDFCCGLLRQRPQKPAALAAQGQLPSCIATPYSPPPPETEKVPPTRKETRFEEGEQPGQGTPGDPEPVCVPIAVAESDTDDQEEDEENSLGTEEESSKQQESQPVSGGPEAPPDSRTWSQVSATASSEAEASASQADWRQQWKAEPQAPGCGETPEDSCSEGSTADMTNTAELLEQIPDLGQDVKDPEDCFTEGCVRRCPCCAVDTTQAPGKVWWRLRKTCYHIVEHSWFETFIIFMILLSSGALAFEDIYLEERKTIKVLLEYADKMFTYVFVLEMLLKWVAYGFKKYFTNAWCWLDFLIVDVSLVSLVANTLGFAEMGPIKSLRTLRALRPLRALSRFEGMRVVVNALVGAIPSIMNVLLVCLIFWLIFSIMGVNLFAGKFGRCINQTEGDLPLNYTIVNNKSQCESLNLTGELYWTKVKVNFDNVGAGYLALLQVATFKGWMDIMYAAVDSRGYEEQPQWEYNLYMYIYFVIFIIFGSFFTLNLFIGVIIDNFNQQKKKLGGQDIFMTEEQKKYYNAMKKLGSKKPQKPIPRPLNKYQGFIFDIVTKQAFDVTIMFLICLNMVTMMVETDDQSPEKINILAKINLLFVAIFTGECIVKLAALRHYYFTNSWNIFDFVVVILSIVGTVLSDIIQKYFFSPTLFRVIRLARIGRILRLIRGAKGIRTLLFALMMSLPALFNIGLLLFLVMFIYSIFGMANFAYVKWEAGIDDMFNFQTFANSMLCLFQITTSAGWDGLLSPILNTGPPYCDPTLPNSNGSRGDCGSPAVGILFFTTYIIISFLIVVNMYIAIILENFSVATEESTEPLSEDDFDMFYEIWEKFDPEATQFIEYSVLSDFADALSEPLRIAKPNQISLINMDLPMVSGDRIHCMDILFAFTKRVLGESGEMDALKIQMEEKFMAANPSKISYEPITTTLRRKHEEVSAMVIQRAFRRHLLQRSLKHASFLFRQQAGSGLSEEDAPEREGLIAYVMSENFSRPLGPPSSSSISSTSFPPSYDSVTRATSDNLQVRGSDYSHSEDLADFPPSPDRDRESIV
Chain of NaV1.5 (Q07699 19-218 partner): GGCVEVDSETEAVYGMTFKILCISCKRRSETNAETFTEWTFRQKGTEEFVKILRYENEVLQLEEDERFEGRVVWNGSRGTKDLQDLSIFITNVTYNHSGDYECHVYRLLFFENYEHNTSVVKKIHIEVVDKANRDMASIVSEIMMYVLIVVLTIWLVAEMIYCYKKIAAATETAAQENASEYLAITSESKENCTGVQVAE

With `O=S(=O)([O-])Oc1c(-c2sc3c(ccc4cccc(Cl)c43)c2OS(=O)(=O)[O-])[nH]c2ccc(Br)cc12.[Na+].[Na+]` [CP1, DISODIUM 5-BROMO-2-[9-CHLORO-3-(SULFONATOOXY) NAPHTHO [1,2-B] THIEN-2-YL]-1H-INDOL-3-YL SULFATE], the “ΔV1/2 of G–V relations” value is on record as −2.26 ± 0.95 mV. For the same molecule, the “G/Gmax Mean (Fig. 6d)” value (voltage 0 mV) amounted to 0.9380. The “G/Gmax Mean (Fig. 6d)” value (voltage 20 mV) was determined as 1.0000. Also, the “G/Gmax Mean (Fig. 6d)” value (voltage -20 mV) is given as 0.9095. Moreover, the “G/Gmax Mean (Fig. 6d)” value (voltage -40 mV) is reported as 0.8354. The “G/Gmax Mean (Fig. 6d)” value (voltage -60 mV) came to 0.4098. Moreover, the “G/Gmax Mean (Fig. 6d)” value (voltage -80 mV) amounted to 0.0040. Further, under “voltage -100 mV”, the “G/Gmax Mean (Fig. 6d)” value is 0.0015. Besides, the “G/Gmax Mean (Fig. 6d)” value (voltage -120 mV) is listed as 0.0016.

The record behind these values is PMC7367283, “A PIP2 substitute mediates voltage sensor-pore coupling in KCNQ activation” (Communications Biology, 2020).
